Source: patent US20240082183A1, “METHODS FOR PREVENTING OR TREATING CONDITIONS RELATED TO T CELL MEDIATED INTESTINAL DISORDERS” (The Regents of the University of Michigan, priority 2021, published 2024)

Experiments:
[1] = system: primary colonic epithelial cells (PCECs); test: In vitro allogeneic CTL assay, AnnexinV positive cells of Green CMFDA Dye positive PCECs; details: PCECs treated 0.2 mM for 2 hours
Method: PCECs were pre-treated with 5mM DMM, 0.5mM DI, 10nM atpenin A5 or vehicle for 3 hours.
Flow cytometry: Cells were re-suspended in 2% BSA in PBS and stained with the following antibodies and reagents; FITC-anti-CD326 (G8.8, #118208, 1:200), APC-anti-CD326 (G8.8, #118214, 1:200), DAPI, CellROX Deep Red (#C10491, 500 nM, Thermo Scientific), MitoSOX (#M36008, 5 μM, Thermo Scientific), JC-1 (#M34152, 2 μM, Thermo Scientific), 7-AAD (#420404, 1:100, BioLegend), Annexin V (#640947, 1:20, Biolegend), anti-CD16/CD32 antibody (BD Biosciences, 2.4G2), APC-anti-CD45.2 (#109814, 1:200, BioLegend), and CellTracker Green CMFDA Dye (#C7025, 1 μM, Invitrogen) according to manufacturer's protocol. Cells were run on Attune NxT flow cytometer (Thermo Scientific) and analyzed using FlowJo v10.2 (FlowJo LLC, Ashland, OR).

[2] = system: primary colonic epithelial cells (PCECs); test: Apoptosis of pre-treated PCECs induced by perforin and Granzyme B; assay type: cell-based, C57BL/6 mice; details: pre-treated 2 hours, then perforin and Granzyme B 4 hours
Method: Cell culture: C57BL/6 primary colonic epithelial cells (PCEC, C57-6047, Cell Biologics, Chicago, IL) were cultured in compete epithelial growth medium supplemented with insulin-transferrin-selenium, epidermal growth factor, glutamine, antibiotics, antimycotics and fecal bovine serum (#M6621, Cell Biologics). Cells were routinely tested for mycoplasma contamination using MycoAlert (#LT07-318, Lonza, Switzerland). Cells were treated with Mouse active perforin (#APB317Mu01, Cloud-Clone Corp., Katy, TX) and recombinant mouse Granzyme B (#140-03, PeproTech, Rocky Hill, NJ) for 4 to 6 hours in indicated concentrations following manufacturer's recommendations. Cells were incubated with GDF-15 (#8944-GD-025, 500 pg/mL, R&D Systems, Minneapolis, MN), Tiron (#172553, 10 mM, Sigma-Aldrich, St. Louis, MO), Trolox (#648471, 0.5 mM, Sigma-Aldrich), 4-Octyl itaconate (#SML2338, 0.1 mM, Sigma-Aldrich) and NAD (#N8285, 1 mM, Sigma-Aldrich).

SDHA = target: T1, SDHA (Mus musculus, UniProt Q8K2B3+Q9CQA3+Q9CXV1+Q9CZB0); test: SDH enzyme staining of colon and ileum 12 h after oral gavage; assay type: in vivo, B6 WT mice; details: naive B6 WT, 12 h after administration
T1 construct: from tissue; host or cells: colon and ileum of naive B6 WT mice
Method: Hematopoietic cell transplantation (HCT): Splenic T cells from donors were enriched, and the BM was depleted of T cells by autoMACS (Miltenyi Biotec, Bergisch Gladbach, Germany) utilizing CD90.2 microbeads (#130-121-278, Miltenyi Biotec). WT B6, C3H.SW, Sdhaf1^−/−, Sdha^Δ/IEC , Irg1h−/−B6 and BALB/c animals were used as recipients and received 1,000 cGy (WT B6, Sdhaf1^−/−and Sdha^Δ/IEC) or 800 cGy (BALB/c) TBI on day −1, respectively, and 1×10^6 (C3H.SW→C57BL/B6 or C57BL/B6→BALB/c), 3×10^6 (BALB/c→C57BL/6, Sdhaf1^−/−, Sdha^Δ/IEC) CD90.2^+T cells along with 5×10^6 T-cell-depleted BM (TCD-BM) cells from either syngeneic or allogeneic donors on day 0. [B6Ly5.2→B6] and [B6 Ly5.2→Sdhaf1^−/−] animals received 900 cGy TBI on day −1 and were injected intravenously with 3×10^6 CD90.2^+T cells and 5×10^6 TCD-BM from either syngeneic B6 or BALB/c donors on day 0. For the chemotherapy conditioning model, B6 WT mice received busulfan (#B2635, 25 mg kg^−1 from day −7 to −4; Sigma-Aldrich) and cyclophosphamide (#C7397, 100 mg kg^−1 from day −3 to −2; Sigma-Aldrich) intraperitoneally, and 1×10^7 (BALB/c→C57BL/6) CD90.2^+T cells along with 1×10^7 TCD-BM cells from either syngeneic or allogeneic donors on day 0. For the no-irradiated model, unirradiated B6D2F1 mice were intravenously injected with 10×10^7 splenocytes from B6D2F1 or B6 donors. Animals received vehicle or dimethyl malonate (DMM, #136441, 0.5 g or 5g kg^−1, Sigma-Aldrich, St. Louis, MO, USA), dimethyl itaconate (DI, #09533, 0.25 g or 2.5g kg^−1, Sigma-Aldrich) or atpenin A5 (#11898, 0.9 μg or 9 μg kg^−1, Cayman Chemical, Ann Arbor, MI, USA) according to manufacturer's instructions by flexible 20-gauge, 1,5-in, intra-gastric gavage needle every other day from day 0. […]
Succinate dehydrogenase functional staining: Specimens were dissected from naïve, syngeneic and allogeneic WT B6 mice at 7 and 21 days post HCT. […] After mounting the slides, images were obtained using Olympus BX51M (Olympus, Japan) and the SDH activity was quantified using Image J (National Institutes of Health, Bethesda, […], USA).

[3] = system: GI GVHD in B6 WT recipients; assay type: in vivo; details: for clinical GVHD severity of allogeneic mice vs vehicle / survival of allogeneic mice vs vehicle / survival of syngeneic mice: gavage every other day from day 0 post HCT; for histopathological GVHD severity in the colon and ileum / histopathological GVHD severity in the liver, skin, and lungs: allogeneic recipients, 7 days post HCT
Method: Hematopoietic cell transplantation (HCT): Splenic T cells from donors were enriched, and the BM was depleted of T cells by autoMACS (Miltenyi Biotec, Bergisch Gladbach, Germany) utilizing CD90.2 microbeads (#130-121-278, Miltenyi Biotec). WT B6, C3H.SW, Sdhaf1^−/−, Sdha^Δ/IEC , Irg1h−/−B6 and BALB/c animals were used as recipients and received 1,000 cGy (WT B6, Sdhaf1^−/−and Sdha^Δ/IEC) or 800 cGy (BALB/c) TBI on day −1, respectively, and 1×10^6 (C3H.SW→C57BL/B6 or C57BL/B6→BALB/c), 3×10^6 (BALB/c→C57BL/6, Sdhaf1^−/−, Sdha^Δ/IEC) CD90.2^+T cells along with 5×10^6 T-cell-depleted BM (TCD-BM) cells from either syngeneic or allogeneic donors on day 0. [B6Ly5.2→B6] and [B6 Ly5.2→Sdhaf1^−/−] animals received 900 cGy TBI on day −1 and were injected intravenously with 3×10^6 CD90.2^+T cells and 5×10^6 TCD-BM from either syngeneic B6 or BALB/c donors on day 0. For the chemotherapy conditioning model, B6 WT mice received busulfan (#B2635, 25 mg kg^−1 from day −7 to −4; Sigma-Aldrich) and cyclophosphamide (#C7397, 100 mg kg^−1 from day −3 to −2; Sigma-Aldrich) intraperitoneally, and 1×10^7 (BALB/c→C57BL/6) CD90.2^+T cells along with 1×10^7 TCD-BM cells from either syngeneic or allogeneic donors on day 0. For the no-irradiated model, unirradiated B6D2F1 mice were intravenously injected with 10×10^7 splenocytes from B6D2F1 or B6 donors. Animals received vehicle or dimethyl malonate (DMM, #136441, 0.5 g or 5g kg^−1, Sigma-Aldrich, St. Louis, MO, USA), dimethyl itaconate (DI, #09533, 0.25 g or 2.5g kg^−1, Sigma-Aldrich) or atpenin A5 (#11898, 0.9 μg or 9 μg kg^−1, Cayman Chemical, Ann Arbor, MI, USA) according to manufacturer's instructions by flexible 20-gauge, 1,5-in, intra-gastric gavage needle every other day from day 0. The mice were randomly assigned to syngeneic, allogeneic or treatment groups in each experiment. No mice were excluded from analysis. No statistical methods were used to predetermine sample size. The investigators were not blinded to allocation during experiments and outcome assessment.
Systemic and histopathological analysis of GVHD: Survival after HCT was monitored daily and assessed the degree of clinical GVHD weekly, as described previously^64. Histopathological analysis of the liver, gastrointestinal (GI) tract, and lung, which are the primary GVHD target organs, was performed as described utilizing a semi-quantitative scoring system implemented in a blinded manner by a single pathologist (C.L.)^65. After scoring, the codes were broken, and the data compiled.

[4] = system: primary colonic epithelial cells (PCECs); test: 51Cr release cytotoxic killing assay, pre-treated PCECs as targets of primed T cells; assay type: cell-based, B6 WT mice; details: for cell death of pre-treated PCECs vs diluent: co-cultured with allo-primed T cells; for apoptosis of pre-treated PCECs: cultured with syngeneic T cells
[5] = system: isolated mitochondria of colon; test: ATP detection assay in isolated mitochondria from IECs; assay type: biochemical, mice; details: 21 days post HCT, after malonate treatment
Method: Mitochondria Isolation: Isolated IECs from syngeneic and allogeneic recipients in mitochondria isolation buffer (MIB) were disrupted using a glass homogenizer with 2-3 strokes. MIB was composed of 70 mM sucrose (#S0389, Sigma-Aldrich), 210 mM mannitol (#M9546, Sigma-Aldrich), 5 mM HEPES, 1 mM EGTA (#E0396, Sigma-Aldrich), 0.5% BSA, pH 7.2 and protease inhibitor cocktail (#78429, Sigma-Aldrich). Homogenate was centrifuged at 800 g for 10 min at 4° C. Following centrifugation, fat/lipid was carefully aspirated, and the remaining supernatant was decanted through 2 layers of cheesecloth to a separate tube and centrifuged twice at 8000 g for 15 min at 4° C. After removal of the light mitochondrial layer, the pellet was resuspended in MIB and centrifuged at 8500 g for 10 min. The final pellet was resuspended in a minimal volume of mitochondrial assay solution (MAS) and kept on ice. […] Total protein (mg/ml) was determined via Pierce BCA Protein Assay (#23225, Thermo Scientific). […] The ATP level was measured using the Cell Titer Glo 2.0 luminescence assay (#G9243, Promega, Madison, WI). Luminescence was measured for 500 ms using a SpectraMax M3 Microplate reader (Molecular Devices, San Jose, CA).

B6 WT mice, colonic IECs = test: DSS chemical induced colitis model; assay type: in vivo; details: twelve days after DSS treatment, vs control animals
Method: Colitis models: For the DSS colitis model, animals were provided with drinking water containing 2.5-3% DSS (#0216011010. MP Biomedicals, Santa Ana, CA) for 7 days. Mice were injected with 100 μg of anti-CTLA-4 mAb (#BE0164, clone 9D9, Bio X Cell, West Lebanon, NH) or isotype control (#BE0086, MCP-11, Bio X Cell) twice (3 and 1 day before DSS administration). For the T-cell transfer induced colitis model, isolated splenic T cells from WT B6 and Prf^−/−mice were stained with DAPI (#422801, 1 μM, Biolenged), APC-Cy7 anti-CD4 (#560246, GK1.5, 1:100, BD Biosciences, San Jose, CA), APC anti-CD25 (#101910, 3C7, 1:100, Biolegend), FITC anti-CD44 (#103006, IM7, 1:100, Biolegend) and PE anti-CD45RB (#103308, C363-16A, 1:100, Biolegend). CD4^+CD25^−CD44^−CD45RB^hi cells were sorted with the MoFlo Astrios cell sorter (Beckman Coulter, Indianapolis, IN) and intraperitoneally injected into Rag-1^−/−recipients.
Fluorescent immunohistochemistry staining: Sections were prepared as mentioned in the SDH functional staining method. […] SDH levels were quantified and measured in intensity from Cy3 positive epithelial cells using Image J. For primary mice colonic epithelial cells, cells were spun down and put on coverslips. […]
Succinate quantification: Isolated IECs were collected, processed and analysed using the Succinate Assay Kit (#ab204718, Abcam) according to the manufacturer's protocol.

T1 sequence (Q8K2B3 43-664): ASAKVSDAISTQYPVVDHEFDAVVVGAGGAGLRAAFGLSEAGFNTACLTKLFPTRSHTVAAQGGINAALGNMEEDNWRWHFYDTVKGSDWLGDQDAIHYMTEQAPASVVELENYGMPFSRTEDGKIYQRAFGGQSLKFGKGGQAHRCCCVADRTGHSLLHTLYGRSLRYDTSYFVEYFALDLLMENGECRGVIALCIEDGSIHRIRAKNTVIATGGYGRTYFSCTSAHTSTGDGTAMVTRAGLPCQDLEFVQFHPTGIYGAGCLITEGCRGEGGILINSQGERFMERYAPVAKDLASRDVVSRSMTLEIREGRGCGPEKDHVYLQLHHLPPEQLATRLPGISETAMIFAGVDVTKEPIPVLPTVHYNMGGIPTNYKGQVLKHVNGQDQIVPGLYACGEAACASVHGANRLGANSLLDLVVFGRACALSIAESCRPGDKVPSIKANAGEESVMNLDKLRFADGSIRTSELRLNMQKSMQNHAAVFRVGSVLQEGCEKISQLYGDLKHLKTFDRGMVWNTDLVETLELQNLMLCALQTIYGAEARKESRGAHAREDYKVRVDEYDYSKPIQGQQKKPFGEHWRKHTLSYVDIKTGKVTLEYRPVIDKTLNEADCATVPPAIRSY
T1 sequence (Q9CQA3 31-282): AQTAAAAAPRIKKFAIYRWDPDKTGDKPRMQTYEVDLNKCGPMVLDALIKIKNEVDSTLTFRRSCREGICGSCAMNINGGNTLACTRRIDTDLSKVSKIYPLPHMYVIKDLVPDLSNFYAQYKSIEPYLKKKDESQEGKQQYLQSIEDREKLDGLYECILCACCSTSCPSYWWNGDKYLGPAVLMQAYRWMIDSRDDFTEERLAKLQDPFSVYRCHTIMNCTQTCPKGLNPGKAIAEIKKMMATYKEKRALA
T1 sequence (Q9CZB0 30-169): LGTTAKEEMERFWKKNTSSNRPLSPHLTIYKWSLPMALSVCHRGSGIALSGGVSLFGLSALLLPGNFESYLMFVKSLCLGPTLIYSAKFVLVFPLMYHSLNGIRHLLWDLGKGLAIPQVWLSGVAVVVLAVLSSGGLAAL
T1 sequence (Q9CXV1 57-159): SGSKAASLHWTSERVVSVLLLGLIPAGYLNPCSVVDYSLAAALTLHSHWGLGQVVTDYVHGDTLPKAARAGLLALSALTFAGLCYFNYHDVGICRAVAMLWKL

Question: Which “susceptibility to T cell mediated cytotoxicity” value [1] does the source give for `C=C(CC(=O)OCCCCCCCC)C(=O)O` [4-octyl itaconate, 4-Octyl itaconate] here?
Answer: enhance susceptibility to T cell mediated cytotoxicity

Question: With `O=S(=O)(O)c1cc(O)c(O)c(S(=O)(=O)O)c1` [Tiron] as the molecule, how does the “apoptosis of PCECs induced by GranzymeB and perforin” value [2] read?
Answer: did not reduce apoptosis

Question: `Cc1c(C)c2c(c(C)c1O)CCC(C)(C(=O)O)O2` (stereo not shown) [Trolox] was tested. Which “apoptosis of PCECs induced by GranzymeB and perforin” value [2] did it give?
Answer: did not reduce apoptosis

Question: `COc1[nH]c(=O)c(C(=O)[C@@H](C)C[C@H](C)[C@@H](Cl)CCl)c(O)c1OC` [atpenin A5] was tested. Which “SDHA function (SDH enzymatic staining)” value (SDHA) did it give?
Answer: inhibited SDHA function

Question: And the “clinical GVHD severity of allogeneic mice vs vehicle” value [3]?
Answer: more severe GVHD symptoms

Question: And the “survival of allogeneic mice vs vehicle” value [3]?
Answer: died significantly faster

Question: And the “survival of syngeneic mice” value [3]?
Answer: survived

Question: How did the “cell death of pre-treated PCECs vs diluent” value [4] turn out when `C=C(CC(=O)OC)C(=O)OC` [itaconate, dimethyl itaconate] was run?
Answer: significantly higher levels of cell death

Question: What about the “apoptosis of pre-treated PCECs” value [4] of the same molecule?
Answer: no increase in apoptosis

Question: And the “SDHA function (SDH enzymatic staining)” value (SDHA)?
Answer: inhibited SDHA function

Question: What about the “histopathological GVHD severity in the colon and ileum” value [3] of the same molecule?
Answer: increased GVHD severity

Question: What about the “histopathological GVHD severity in the liver, skin, and lungs” value [3] of the same molecule?
Answer: not in the liver, skin, and lungs

Question: And the “clinical GVHD severity of allogeneic mice vs vehicle” value [3]?
Answer: more severe GVHD symptoms

Question: What about the “survival of allogeneic mice vs vehicle” value [3] of the same molecule?
Answer: died significantly faster

Question: Which results are given for `COC(=O)CC(=O)OC` [malonate, dimethyl malonate]?
Answer: cell death of pre-treated PCECs vs diluent [4]: significantly higher levels of cell death; apoptosis of pre-treated PCECs [4]: no increase in apoptosis; SDHA function (SDH enzymatic staining) (SDHA): inhibited SDHA function; ATP production, difference between mitochondria from allogeneic and syngeneic/naive animals [5]: difference diminished; histopathological GVHD severity in the colon and ileum [3]: increased GVHD severity; histopathological GVHD severity in the liver, skin, and lungs [3]: not in the liver, skin, and lungs; clinical GVHD severity of allogeneic mice vs vehicle [3]: more severe GVHD symptoms; survival of allogeneic mice vs vehicle [3]: died significantly faster; survival of syngeneic mice [3]: survived

Question: dextran sulfate sodium [DSS] was tested. Which “SDHA levels in colonic IECs” value (B6 WT mice, colonic IECs) did it give?
Answer: similar

Question: What about the “succinate levels in colonic IECs” value (B6 WT mice, colonic IECs) of the same molecule?
Answer: similar
